What all share (format): biochemical
Assay [1] concerns the target Human KDR (residues 790-1356) (Homo sapiens (Human), UniProt P35968). Put plainly: Human KDR kinase assay, HTRF KinEase (Example B-2). The settings on record: protocol of Example B-2 (other compounds). In a few lines:
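Human KDR residues 790-1356 (0.1 ng/well) in buffer with 5 mM MgCl2, 1 mM MnCl2, 1 mM DTT, biotinylated peptide substrate, ATP at Km (4.0 μM), 3% DMSO, 10 compound concentrations; 40 min, room temperature. EDTA stop, streptavidin-XL665/Eu-TK antibody HTRF read 665/620 nm; 4-parameter IC50.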
On the technique in general: Time-resolved FRET reads energy transfer from a long-lived donor to a nearby acceptor.

The target of assay [2] is Human MER (residues 528-999) (Homo sapiens (Human), UniProt Q12866). Nature of the assay: Human Mer kinase assay, HTRF KinEase (Example C-2). The settings on record: protocol of Example C-2 (other compounds). The method in brief:
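HTRF KinEase TK assay with MER 528-999 (1 ng/well) in enzymatic buffer plus 5 mM MgCl2 and 1 mM DTT, biotinylated peptide substrate and ATP at Km (40 μM), 3% DMSO final, 60 min at room temperature. Stopped with EDTA detection mix (SA-XL665, TK antibody-Eu3+), read at 665/620 nm after 60 min; IC50 from 10-point 4-parameter fit, normalized to DMSO and 1 μM reference.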

In assay [3] the target is Human MET (residues 956-1390) (Homo sapiens (Human), UniProt P08581). Nature of the assay: Human Met kinase assay, HTRF KinEase (Example D-2). The settings on record: protocol of Example D-2 (other compounds); read-out: c-Met IC50. In a few lines:
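HTRF KinEase assay on MET residues 956-1390 (0.1 ng/well) in buffer with 5 mM MgCl2, 1 mM DTT and 1 mM MnCl2, with biotinylated peptide substrate, ATP at Km, 10 compound concentrations and 3% DMSO final, run 40 min at room temperature. The […] signal was normalized to DMSO and to 1 μM reference compound, and IC50 came from a 4-parameter logistic fit.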

From patent US12371428B2 (Exelixis, Inc., priority 2019, dated 2025) come the findings set out here.

Molecules are shown by their SMILES. pIC50: −log10 of the molar value.

Human KDR (residues 790-1356), sequence (P35968 790-1356): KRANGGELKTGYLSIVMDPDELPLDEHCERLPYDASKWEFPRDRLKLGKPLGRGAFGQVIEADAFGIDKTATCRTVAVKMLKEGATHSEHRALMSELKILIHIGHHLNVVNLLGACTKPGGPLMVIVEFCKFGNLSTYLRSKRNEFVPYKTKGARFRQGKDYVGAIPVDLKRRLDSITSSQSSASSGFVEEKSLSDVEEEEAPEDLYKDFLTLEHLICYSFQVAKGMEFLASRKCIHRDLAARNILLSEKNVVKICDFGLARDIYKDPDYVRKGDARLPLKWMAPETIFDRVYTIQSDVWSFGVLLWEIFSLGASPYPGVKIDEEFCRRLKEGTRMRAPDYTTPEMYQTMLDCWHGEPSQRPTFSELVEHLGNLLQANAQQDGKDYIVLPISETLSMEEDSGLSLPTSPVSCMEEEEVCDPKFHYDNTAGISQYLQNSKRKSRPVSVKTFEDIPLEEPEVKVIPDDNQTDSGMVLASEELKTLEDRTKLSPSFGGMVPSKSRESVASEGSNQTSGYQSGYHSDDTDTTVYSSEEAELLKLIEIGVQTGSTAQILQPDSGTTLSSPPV
Human MET (residues 956-1390), sequence (P08581 956-1390): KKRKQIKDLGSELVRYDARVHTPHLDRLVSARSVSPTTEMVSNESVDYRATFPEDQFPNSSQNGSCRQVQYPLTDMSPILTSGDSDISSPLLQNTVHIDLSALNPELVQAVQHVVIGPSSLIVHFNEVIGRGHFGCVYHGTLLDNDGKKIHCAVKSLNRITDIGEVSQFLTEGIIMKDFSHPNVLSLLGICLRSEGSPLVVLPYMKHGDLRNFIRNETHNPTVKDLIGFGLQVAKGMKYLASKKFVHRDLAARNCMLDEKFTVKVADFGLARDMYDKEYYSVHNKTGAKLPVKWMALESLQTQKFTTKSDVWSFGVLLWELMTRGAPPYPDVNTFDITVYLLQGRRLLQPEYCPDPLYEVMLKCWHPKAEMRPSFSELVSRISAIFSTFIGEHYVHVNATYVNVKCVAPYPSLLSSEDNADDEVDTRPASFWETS
Human MER (residues 528-999), sequence (Q12866 528-999): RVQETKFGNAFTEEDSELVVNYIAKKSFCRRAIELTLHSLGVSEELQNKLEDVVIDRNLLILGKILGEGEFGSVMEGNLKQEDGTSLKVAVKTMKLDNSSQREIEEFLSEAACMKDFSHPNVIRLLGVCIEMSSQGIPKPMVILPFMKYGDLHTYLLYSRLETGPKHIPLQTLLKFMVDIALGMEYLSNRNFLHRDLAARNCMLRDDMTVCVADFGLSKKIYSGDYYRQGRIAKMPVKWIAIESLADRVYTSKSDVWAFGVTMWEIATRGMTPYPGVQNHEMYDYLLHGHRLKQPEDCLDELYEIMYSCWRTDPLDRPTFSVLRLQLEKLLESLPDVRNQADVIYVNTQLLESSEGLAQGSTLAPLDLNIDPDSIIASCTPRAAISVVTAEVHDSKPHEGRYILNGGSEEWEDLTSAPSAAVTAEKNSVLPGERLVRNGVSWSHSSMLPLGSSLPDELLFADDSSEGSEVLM

Usually pIC50 stands for the IC50 on a negative log10 scale, so that one unit is a factor of ten. Consider `COc1cc2nccc(Oc3ccc(NC(=O)c4c(C)cc(C)n(-c5ccc(F)cc5)c4=O)cc3F)c2nc1OC` [Compound 279, N-[4-[(6,7-Dimethoxy-1,5-naphthyridin-4-yl)oxy]-3-fluorophenyl]-1-(4-fluorophenyl)-4,6-dimethyl-2-oxopyridine-3-carboxamide], for which the pIC50 in assay [1], in assay [2] and in assay [3] was more than 7.00 in each case.
On to `COc1cnc2c(Oc3ccc(NC(=O)c4c(C)cc(C)n(-c5ccc(F)cc5)c4=O)cc3F)ccnc2c1` [Compound 280, N-[3-Fluoro-4-[(7-methoxy-1,5-naphthyridin-4-yl)oxy]phenyl]-1-(4-fluorophenyl)-4,6-dimethyl-2-oxopyridine-3-carboxamide], for which the pIC50 in assay [1], in assay [2] and in assay [3] was more than 7.00 throughout.
Take `COc1ccc2nccc(Oc3ccc(NC(=O)c4c(C)cc(C)n(-c5ccc(F)cc5)c4=O)cc3F)c2n1` [Compound 281, N-[3-Fluoro-4-[(6-methoxy-1,5-naphthyridin-4-yl)oxy]phenyl]-1-(4-fluorophenyl)-4,6-dimethyl-2-oxopyridine-3-carboxamide]: the pIC50 in assay [1], in assay [2] and in assay [3] was more than 7.00 each time.
Regarding `COc1cc2nccc(Oc3ccc(NC(=O)c4cn(C)c(CO)c(-c5ccc(F)cc5C)c4=O)cc3F)c2nc1OC` [Compound 282, N-[4-[(6,7-Dimethoxy-1,5-naphthyridin-4-yl)oxy]-3-fluorophenyl]-5-(4-fluoro-2-methylphenyl)-6-(hydroxymethyl)-1-methyl-4-oxopyridine-3-carboxamide], the pIC50 in assay [1] was less than 6.52; in assay [2], more than 7.00; in assay [3] it was more than 7.00.
Regarding `CCn1cc(C(=O)Nc2ccc(Oc3ccnc4cc(OC)c(OC)nc34)c(F)c2)c(=O)c(-c2ccc(F)cc2C)c1CO` [Compound 283, N-[4-[(6,7-Dimethoxy-1,5-naphthyridin-4-yl)oxy]-3-fluorophenyl]-1-ethyl-5-(4-fluoro-2-methylphenyl)-6-(hydroxymethyl)-4-oxopyridine-3-carboxamide], the figures for the pIC50 in assay [1], in assay [2] and in assay [3] were less than 6.52, more than 7.00 and more than 7.00, respectively.
With `CCn1cc(C(=O)Nc2ccc(Oc3ccnc4cc(OC)c(OC)nc34)cc2)c(=O)c(-c2ccc(F)cc2C)c1CO` [Compound 284, N-[4-[(6,7-Dimethoxy-1,5-naphthyridin-4-yl)oxy]phenyl]-1-ethyl-5-(4-fluoro-2-methylphenyl)-6-(hydroxymethyl)-4-oxopyridine-3-carboxamide], the pIC50 in assay [1] was less than 6.52; in assay [2] it was more than 7.00; in assay [3], more than 7.00.
Consider `CCn1cc(C(=O)Nc2ccc(Oc3ccnc4cc(OC)cnc34)c(F)c2)c(=O)c(-c2ccc(F)cc2C)c1CO` [Compound 285, 1-Ethyl-N-[3-fluoro-4-[(7-methoxy-1,5-naphthyridin-4-yl)oxy]phenyl]-5-(4-fluoro-2-methylphenyl)-6-(hydroxymethyl)-4-oxopyridine-3-carboxamide], for which the results for the pIC50 in assay [1], in assay [2] and in assay [3] were less than 6.52, more than 7.00 and more than 7.00, respectively.
In the case of `COc1cc2nccc(Oc3ccc(NC(=O)c4c(C)ccn(-c5ccc(F)cc5)c4=O)cc3F)c2nc1OC` [Compound 286, N-[4-[(6,7-Dimethoxy-1,5-naphthyridin-4-yl)oxy]-3-fluorophenyl]-1-(4-fluorophenyl)-4-methyl-2-oxopyridine-3-carboxamide], the pIC50 in assay [1], in assay [2] and in assay [3] was more than 7.00 throughout.
Turning to `COc1ccc2nccc(Oc3ccc(NC(=O)c4c(C)ccn(-c5ccc(F)cc5)c4=O)cc3F)c2n1` [Compound 287, N-[3-Fluoro-4-[(6-methoxy-1,5-naphthyridin-4-yl)oxy]phenyl]-1-(4-fluorophenyl)-4-methyl-2-oxopyridine-3-carboxamide], the values for the negative logarithm of the IC50 (pIC50) in assay [1], in assay [2] and in assay [3] were more than 7.00, more than 7.00 and 6.52 to 7.00, respectively.
Take `COc1cc2nccc(Oc3ccc(NC(=O)c4c(C)cc(C)n(-c5ccc(F)cc5)c4=O)cc3)c2nc1OC` [Compound 288, N-[4-[(6,7-Dimethoxy-1,5-naphthyridin-4-yl)oxy]phenyl]-1-(4-fluorophenyl)-4,6-dimethyl-2-oxopyridine-3-carboxamide]: the negative-log IC50 (pIC50) in assay [1], in assay [2] and in assay [3] was more than 7.00 each time.
Turning to `COc1cnc2c(Oc3ccc(NC(=O)c4c(C)cc(C)n(-c5ccc(F)cc5)c4=O)cc3)ccnc2c1` [Compound 289, 1-(4-Fluorophenyl)-N-[4-[(7-methoxy-1,5-naphthyridin-4-yl)oxy]phenyl]-4,6-dimethyl-2-oxopyridine-3-carboxamide], the pIC50 in assay [1], in assay [2] and in assay [3] was more than 7.00 each time.
In the case of `COc1ccc2nccc(Oc3ccc(NC(=O)c4c(C)cc(C)n(-c5ccc(F)cc5)c4=O)cc3)c2n1` [Compound 290, 1-(4-Fluorophenyl)-N-[4-[(6-methoxy-1,5-naphthyridin-4-yl)oxy]phenyl]-4,6-dimethyl-2-oxopyridine-3-carboxamide], the results for the pIC50 in assay [1], in assay [2] and in assay [3] were more than 7.00, more than 7.00 and 6.52 to 7.00, respectively.
As for `COc1cnc2c(Oc3ccc(NC(=O)c4cccn(-c5ccc(F)cc5)c4=O)cc3F)ccnc2c1` [Compound 291, N-[3-Fluoro-4-[(7-methoxy-1,5-naphthyridin-4-yl)oxy]phenyl]-1-(4-fluorophenyl)-2-oxopyridine-3-carboxamide], the values for the pIC50 in assay [1], in assay [2] and in assay [3] were less than 6.52, more than 7.00 and more than 7.00, respectively.
Regarding `COc1ccc2nccc(Oc3ccc(NC(=O)c4cccn(-c5ccc(F)cc5)c4=O)cc3F)c2n1` [Compound 292, N-[3-Fluoro-4-[(6-methoxy-1,5-naphthyridin-4-yl)oxy]phenyl]-1-(4-fluorophenyl)-2-oxopyridine-3-carboxamide], the pIC50 in assay [1] was less than 6.52; in assay [2], more than 7.00; in assay [3], more than 7.00.
For `COc1cc2nccc(Oc3ccc(NC(=O)c4cccn(-c5ccc(F)cc5)c4=O)cc3F)c2nc1OC` [Compound 293, N-[4-[(6,7-Dimethoxy-1,5-naphthyridin-4-yl)oxy]-3-fluorophenyl]-1-(4-fluorophenyl)-2-oxopyridine-3-carboxamide], the pIC50 in assay [1], in assay [2] and in assay [3] was more than 7.00 in each case.
On to `COc1cnc2c(Oc3ccc(NC(=O)c4c(C)ccn(-c5ccc(F)cc5)c4=O)cc3F)ccnc2c1` [Compound 294, N-[3-Fluoro-4-[(7-methoxy-1,5-naphthyridin-4-yl)oxy]phenyl]-1-(4-fluorophenyl)-4-methyl-2-oxopyridine-3-carboxamide], for which the pIC50 in assay [1], in assay [2] and in assay [3] was more than 7.00 in each case.
Consider `Cc1cc(C)n(-c2ccc(F)cc2)c(=O)c1C(=O)Nc1ccc(Oc2ccnc3cccnc23)c(F)c1` [Compound 295, N-[3-Fluoro-4-(1,5-naphthyridin-4-yloxy)phenyl]-1-(4-fluorophenyl)-4,6-dimethyl-2-oxopyridine-3-carboxamide], for which the pIC50 in assay [1], in assay [2] and in assay [3] was more than 7.00 each time.
As to `COc1ccc2nccc(Oc3ccc(NC(=O)c4c(C)cc(C)n(-c5ccc(F)cc5C)c4=O)cc3F)c2n1` [Compound 296, N-[3-Fluoro-4-[(6-methoxy-1,5-naphthyridin-4-yl)oxy]phenyl]-1-(4-fluoro-2-methylphenyl)-4,6-dimethyl-2-oxopyridine-3-carboxamide], the pIC50 in assay [1] was 6.52 to 7.00; in assay [2], more than 7.00; in assay [3], 6.52 to 7.00.
Regarding `Cc1ccc2nccc(Oc3ccc(NC(=O)c4c(C)cc(C)n(-c5ccc(F)cc5)c4=O)cc3F)c2n1` [Compound 297, N-[3-Fluoro-4-[(6-methyl-1,5-naphthyridin-4-yl)oxy]phenyl]-1-(4-fluorophenyl)-4,6-dimethyl-2-oxopyridine-3-carboxamide], the pIC50 in assay [1], in assay [2] and in assay [3] was more than 7.00 in each case.
For `COc1cc2nccc(Oc3ccc(NC(=O)c4c(C)cc(C)n(-c5ccc(F)cc5C)c4=O)cc3F)c2nc1OC` [Compound 298, N-[4-[(6,7-Dimethoxy-1,5-naphthyridin-4-yl)oxy]-3-fluorophenyl]-1-(4-fluoro-2-methylphenyl)-4,6-dimethyl-2-oxopyridine-3-carboxamide], the negative-log IC50 (pIC50) in assay [1] was more than 7.00; in assay [2], more than 7.00; in assay [3] it was 6.52 to 7.00.
With `COc1cc2nccc(Oc3ccc(NC(=O)c4c(C)ccn(-c5ccc(F)cc5)c4=O)cc3)c2nc1OC` [Compound 299, N-[4-[(6,7-Dimethoxy-1,5-naphthyridin-4-yl)oxy]phenyl]-1-(4-fluorophenyl)-4-methyl-2-oxopyridine-3-carboxamide], the pIC50 in assay [1], in assay [2] and in assay [3] was more than 7.00 in each case.
